According to patent US20120272401A1 (priority 2009, published 2012):

Tests used:
[1] = biological target: T1, AtABCG25 protein (Arabidopsis thaliana, UniProt Q84TH5, L179I); format: biochemical; settings: for Promotion of ABA uptake by nucleotide (energy dependence): 4 mM of the indicated nucleotide; for Inhibition of ATP-dependent ABA uptake by nucleotide: 4 mM of the indicated nucleotide in addition to ATP
T1 construct: Full-length cDNA of the AtABCG25 (Atlg71960) gene was obtained from the RIKEN BioResource Center; made in house; host or cells: Sf9 insect cells (Spodoptera frugiperda), BaculoGold baculovirus system; membrane vesicles
T1 sequence (Q84TH5 whole entry L179I): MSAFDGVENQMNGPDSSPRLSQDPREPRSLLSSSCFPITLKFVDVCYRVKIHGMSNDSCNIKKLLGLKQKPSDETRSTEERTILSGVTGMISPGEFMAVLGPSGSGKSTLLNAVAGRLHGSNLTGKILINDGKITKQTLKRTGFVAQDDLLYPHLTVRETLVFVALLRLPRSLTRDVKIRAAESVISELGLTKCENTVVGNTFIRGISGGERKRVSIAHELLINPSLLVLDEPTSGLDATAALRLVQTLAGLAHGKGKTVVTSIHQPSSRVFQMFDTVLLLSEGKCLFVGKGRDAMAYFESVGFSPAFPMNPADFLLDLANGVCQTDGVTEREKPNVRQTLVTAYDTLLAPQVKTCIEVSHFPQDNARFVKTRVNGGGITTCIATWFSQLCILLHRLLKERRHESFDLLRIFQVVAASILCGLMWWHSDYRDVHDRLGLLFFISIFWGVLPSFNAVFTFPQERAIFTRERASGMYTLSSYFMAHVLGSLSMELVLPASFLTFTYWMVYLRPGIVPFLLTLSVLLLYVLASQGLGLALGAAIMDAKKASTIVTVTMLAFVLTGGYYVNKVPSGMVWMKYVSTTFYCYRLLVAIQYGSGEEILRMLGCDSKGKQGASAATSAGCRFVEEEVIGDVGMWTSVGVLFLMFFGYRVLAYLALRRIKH
Method: Such activity is measured using the vesicle transport assay method described in the Examples below. […] The candidate of ABA transporter protein is expressed in such cell membrane. The membrane comprises inside-out membrane vesicles in which the inside and the outside are inverted.
A BaculoGold™ baculovirus expression vector system (BD PharMingen) was used to prepare the recombinant baculovirus. Sf9 insect cells (Spodoptera frugiperda) were infected with the virus and cultured in SF900-SFM medium (Invitrogen) at 27° C. for 72 hours in a shaking incubator. Cells were collected by centrifugation at 1,100×g for 10 minutes and then disrupted by nitrogen cavitation in 150 mM NaCl. 3 mM CaCl2, 2 mM MgCl2, 0.1 mM EGTA, and 10 mM Tris-HCl (pH 7.4). Undisrupted cells, nuclear debris, and mitochondria were pelleted by centrifugation at 2,600×g for 10 minutes. The supernatant was centrifuged at 100,000×g for 30 minutes, and the pellet was resuspended in 70 mM KCl, 7.5 mM MgCl2, and 50 mM MOPS-Tris (pH 7.0). Membrane vesicles were stored by freezing in a deep freezer until use. Concentration of the protein was measured using the BCA protein assay kit (Pierce) with bovine serum albumin as a control. To confirm the production of the AtABCG25 proteins in the Sf9 cells by Western blot analysis, an anti-AtABCG25 antibody was obtained by immunizing a rabbit with a synthetic peptide (Operon Biotechnologies). This synthetic peptide consisted of 3 types of 12 to 14 amino acid residues from the Arabidopsis AtABCG25 protein, designed based on positions 69 to 82 ([…]), positions 132 to 143 ([…]), and positions 328 to 340 ([…]). Membrane proteins were solubilized using 4% SDS and subjected to 10% SDS-PAGE. Proteins were transferred to a polyvinylidene difluoride membrane and probed using a rabbit anti-AtABCG25 antibody and horseradish-peroxidase-conjugated donkey anti-rabbit IgG. Specific immunoreactive proteins were detected by exposure to an autoradiography film using a chemiluminescence detection system (ECL-plus, Amersham Biosciences).
An experiment of membrane transport was carried out using the rapid filtration technique (Otsuka, M. et al., 2005, Proc. Natl. Acad. Sci., U.S.A., 102: 17923-17928). […] The transport medium was passed through a 0.45-μm nitrocellulose filter (Millipore), and the filter was washed with 6 ml of ice-cooled stop buffer (70 mM KCl, 7.5 mM MgCl2, 50 mM MOPS-Tris, pH 7.0). The radioactivity retained on the filter was determined using a liquid scintillation counter (Tri-Carb2800TRs; PerkinElmer). Membrane vesicles from Sf9 cells containing only the vector were used as the controls.

[2] = test system: AtABCG25 promoter (pAtABCG25::GUS reporter); test: GUS staining of pAtABCG25::GUS transgenic plants after ABA treatment; format: in vivo, Arabidopsis; settings: 10 μM ABA
Method: RNA was extracted from Arabidopsis plants for RT-PCR using the RNeasy Plant Mini Kit (Qiagen). RT-PCR was carried out using AtABCG25_RT-PCR—5′ (5′-[…]-3′ (SEQ ID NO: 8)) and AtABCG25_RT-PCR—3′ (5′-[…]-3′ (SEQ ID NO: 9)) primers with the PrimeScript One Step RT-PCR kit (Takara Bio). The Actin2 transcript as a control was amplified using Actin2RT-F (5′-[…]-3′ (SEQ ID NO: 10)) and Actin2RT-R (5″-[…]-3′ (SEQ ID NO: 11)) primers. GUS staining was carried out according to the standard protocol (Sundaresan, V. et al., 1995, Genes Dev9: 1797-1810). The plants stained with GUS were observed under a SZ61 stereoscopic microscope (Olympus), and digital images were obtained using the DS-L1 CCD digital camera (Nikon). Finer images were photographed using a BX60 upright microscope (Olympus) and a VB-7010 CCD camera (Keyence). For transgenic lines to be examined for GUS expression from the AtABCG25 promoter a 2-kb AtABCG25 promoter region was prepared by amplifying the region using AtABCG25pro_Forward (5′-[…]-3′ (SEQ ID NO: 12)) and AtABCG25pro_Reverse (5′-[…]-3′ (SEQ ID NO: 13)) primers with KOD-plus polymerase (Toyobo), cloning the amplified product into the pENTR/D/TOPO vector (Invitrogen), and integrating the resultant into the GUS-fusion vector pBGGUS (Kubo, M. et al., 2005, Genes Dev 19: 1855-1860).

[3] = test system: CC1=CC(=O)CC(C)(C)C1(O)/C=C/C(C)=C\C(=O)O; test: cells, lysate or membranes named; settings: other: membrane vesicles expressing AtABCG25, ATP-dependent uptake measured for 15 seconds at indicated ABA concentrations; 27.0 °C

Nc1ncnc2c1ncn2[C@@H]1O[C@H](COP(=O)(O)O)[C@@H](O)[C@H]1O [AMP]
Promotion of ABA uptake by nucleotide (energy dependence) [1]: neither ADP nor AMP promoted
Inhibition of ATP-dependent ABA uptake by nucleotide [1]: did not exhibit any inhibitory effect

[O]=[V]([O-])([O-])[O-] [Vanadate]
Inhibition of ATP-dependent ABA uptake by vanadate ([1]; 1 mM vanadate in addition to ATP): inhibited

Nc1ncnc2c1ncn2[C@@H]1O[C@H](COP(=O)(O)OP(=O)(O)O)[C@@H](O)[C@H]1O [ADP]
Promotion of ABA uptake by nucleotide (energy dependence) [1]: neither ADP nor AMP promoted
Inhibition of ATP-dependent ABA uptake by nucleotide [1]: inhibited

CC1=CC(=O)CC(C)(C)C1(O)/C=C/C(C)=C\C(=O)O (racemic) [ABA, abscisic acid]
ABA uptake in the presence of ATP, full activity (100%) ([1]; at 15 seconds, in the presence of ATP, no competing compound): 8.3 μmol/mg protein
Expression level of the GUS reporter after ABA treatment [2]: increased

Nc1ncnc2c1ncn2[C@@H]1O[C@H](COP(=O)(O)OP(=O)(O)OP(=O)(O)O)[C@@H](O)[C@H]1O [ATP, adenosine triphosphate]
Promotion of ABA uptake by nucleotide (energy dependence) [1]: significantly promoted

AtABCG25 protein (Arabidopsis thaliana; L179I)
Km [3]: 0.23 µM
Vmax [3]: 6.2 μmol/min/mg protein

CC1=CC(=O)CC(C)(C)C1(O)/C=C/C(C)=C\C(=O)O (single isomer, unassigned; (-)) [(−)ABA]
Cis-inhibition of ATP-dependent ABA uptake (substrate specificity) ([1]; in the presence of ATP and compound, (+)ABA at a 10-fold concentration): not influenced
